Results taken from the supplement of paper PMC10307832.

How the values were obtained:
Test in all cases: relative viability (nuclei count vs DMSO), 5 days (fraction); higher = more cells survive
NCI-H1650 = tested on: NCI-H1650
Method in brief: (§1)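 Dosing by pin tool came one day after lung cancer cell lines were seeded in 1536-well plates, using either one drug or a fixed anchor-drug dose plus five library-drug doses (not always all listed) in √10 steps. After 5 days, nuclei were counted on 4× images. Relative viability is treated-well nuclei count divided by vehicle-well nuclei count, and values are medians of duplicate plates.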

HARA = tested on: HARA
Method in brief: as §1

HCC-15 = tested on: HCC-15
Method in brief: as §1

NCI-H2023 = tested on: NCI-H2023
Method in brief: as §1

HCC-366 = tested on: HCC-366
Method in brief: as §1

LCLC-103H = tested on: LCLC-103H
Method in brief: as §1

NCI-H2126 = tested on: NCI-H2126
Method in brief: as §1

HCC-44 = tested on: HCC-44
Method in brief: as §1

NCI-H441 = tested on: NCI-H441
Method in brief: as §1

LOU-NH91 = tested on: LOU-NH91
Method in brief: as §1

NCI-H1734 = tested on: NCI-H1734
Method in brief: as §1

RERF-LC-KJ = tested on: RERF-LC-KJ
Method in brief: as §1

SMILES: O=c1[nH]c2ccccc2n1C1CCN(CCCC(c2ccc(F)cc2)c2ccc(F)cc2)CC1 [Pimozide] + CC(=O)c1c(C)c2cnc(Nc3ccc(N4CCNCC4)cn3)nc2n(C2CCCC2)c1=O [Palbociclib] (partner 0.5 µM)
- relative viability (NCI-H1650; first compound 2.53 µM): 0.352
- relative viability (NCI-H1650; first compound 8 µM): 0.271
- relative viability (HARA; first compound 0.08 µM): 0.278
- relative viability (HARA; first compound 0.253 µM): 0.263
- relative viability (HARA; first compound 0.8 µM): 0.22
- relative viability (HARA; first compound 2.53 µM): 0.255
- relative viability (HARA; first compound 8 µM): 0.178
- relative viability (HCC-15; first compound 0.08 µM): 0.747
- relative viability (HCC-15; first compound 0.253 µM): 0.641
- relative viability (HCC-15; first compound 0.8 µM): 0.673
- relative viability (HCC-15; first compound 2.53 µM): 0.652
- relative viability (HCC-15; first compound 8 µM): 0.653
- relative viability (NCI-H2023; first compound 0.08 µM): 0.337
- relative viability (NCI-H2023; first compound 0.253 µM): 0.39
- relative viability (NCI-H2023; first compound 0.8 µM): 0.341
- relative viability (NCI-H2023; first compound 2.53 µM): 0.333
- relative viability (NCI-H2023; first compound 8 µM): 0.245
- relative viability (HCC-366; first compound 0.08 µM): 0.38
- relative viability (HCC-366; first compound 0.253 µM): 0.404
- relative viability (HCC-366; first compound 0.8 µM): 0.345
- relative viability (HCC-366; first compound 2.53 µM): 0.379
- relative viability (HCC-366; first compound 8 µM): 0.357
- relative viability (LCLC-103H; first compound 0.08 µM): 0.451
- relative viability (LCLC-103H; first compound 0.253 µM): 0.46
- relative viability (LCLC-103H; first compound 0.8 µM): 0.428
- relative viability (LCLC-103H; first compound 2.53 µM): 0.444
- relative viability (LCLC-103H; first compound 8 µM): 0.489
- relative viability (NCI-H2126; first compound 0.08 µM): 0.373
- relative viability (NCI-H2126; first compound 0.253 µM): 0.321
- relative viability (NCI-H2126; first compound 0.8 µM): 0.369
- relative viability (NCI-H2126; first compound 2.53 µM): 0.363
- relative viability (NCI-H2126; first compound 8 µM): 0.365
- relative viability (HCC-44; first compound 0.08 µM): 0.975
- relative viability (HCC-44; first compound 0.253 µM): 0.982
- relative viability (HCC-44; first compound 0.8 µM): 0.946
- relative viability (HCC-44; first compound 2.53 µM): 0.925
- relative viability (HCC-44; first compound 8 µM): 0.859
- relative viability (NCI-H441; first compound 0.08 µM): 0.273
- relative viability (NCI-H441; first compound 0.253 µM): 0.252
- relative viability (NCI-H441; first compound 0.8 µM): 0.162
- relative viability (NCI-H441; first compound 2.53 µM): 0.218
- relative viability (NCI-H441; first compound 8 µM): 0.208
- relative viability (LOU-NH91; first compound 0.08 µM): 0.525
- relative viability (LOU-NH91; first compound 0.253 µM): 0.404
- relative viability (LOU-NH91; first compound 0.8 µM): 0.443
- relative viability (LOU-NH91; first compound 2.53 µM): 0.558
- relative viability (LOU-NH91; first compound 8 µM): 0.539
- relative viability (NCI-H1734; first compound 0.08 µM): 0.316
- relative viability (NCI-H1734; first compound 0.253 µM): 0.262
- relative viability (NCI-H1734; first compound 0.8 µM): 0.372
- relative viability (NCI-H1734; first compound 2.53 µM): 0.347
- relative viability (NCI-H1734; first compound 8 µM): 0.328
- relative viability (RERF-LC-KJ; first compound 0.08 µM): 1
- relative viability (RERF-LC-KJ; first compound 0.253 µM): 0.972
- relative viability (RERF-LC-KJ; first compound 0.8 µM): 0.987
- relative viability (RERF-LC-KJ; first compound 2.53 µM): 0.778
- relative viability (RERF-LC-KJ; first compound 8 µM): 0.851
